Source: US20100267561A1, “HERBICIDAL PYRIDAZINONE DERIVATIVES” (priority 2007, published 2010)

Assays:
Format in all cases: in vivo
[1] = test system: bermudagrass (Cynodon dactylon); assay: Test B pre-/postemergence plant response; conditions: for Bermudagrass plant response rating: 8 g ai/ha
Outline: (§1)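 Preemergence and postemergence (plants 2-18 cm, 1- to 4-leaf stage) applications used test chemicals in a non-phytotoxic solvent with surfactant. Plants were held in a greenhouse 13 to 15 days, then rated visually against controls on a 0-100 scale (0 no effect, 100 complete control).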

[2] = test system: catchweed bedstraw (Galium aparine); assay: Test B pre-/postemergence plant response; conditions: Preemergence; 8 g ai/ha; scale 0 to 100
Outline: as §1

[3] = test system: cocklebur (Xanthium strumarium); assay: Test B pre-/postemergence plant response; conditions: for Cocklebur plant response rating: 8 g ai/ha
Outline: as §1

[4] = test system: downy bromegrass (Bromus tectorum); assay: Test B pre-/postemergence plant response; conditions: for Bromegrass, Downy plant response rating: 8 g ai/ha
Outline: as §1

[5] = test system: large crabgrass (Digitaria sanguinalis); assay: Test B pre-/postemergence plant response
Outline: as §1

soybean (Glycine max) = assay: Test B pre-/postemergence plant response
Outline: as §1

[6] = test system: velvetleaf (Abutilon theophrasti); assay: Test B pre-/postemergence plant response
Outline: as §1

[7] = test system: wheat (Triticum aestivum); assay: Test B pre-/postemergence plant response
Outline: as §1

wild oat (Avena fatua) = assay: Test B pre-/postemergence plant response
Outline: as §1

[8] = test system: woolly cupgrass (Eriochloa villosa); assay: Test B pre-/postemergence plant response
Outline: as §1

[9] = test system: barnyardgrass (Echinochloa crus-galli); assay: Test B flooded paddy test plant response
Outline: (§2)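 Step one: raise plants to 2 leaves. Step two: flood pots 3 cm over the soil and apply compound into the water, keeping this depth. Step three: after 13–15 greenhouse days, score visually versus controls, 0–100, where 100 means complete control.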

[10] = test system: ducksalad (Heteranthera limosa); assay: Test B flooded paddy test plant response
Outline: as §2

rice (Oryza sativa) = assay: Test B flooded paddy test plant response
Outline: as §2

[11] = test system: umbrella sedge (Cyperus difformis); assay: Test B flooded paddy test plant response
Outline: as §2

[12] = Postemergence, 16 g ai/ha, scale 0 to 100
[13] = Postemergence, 31 g ai/ha, scale 0 to 100
[14] = Postemergence, 62 g ai/ha, scale 0 to 100, 0 no effect, 100 complete control
[15] = Preemergence, 16 g ai/ha, scale 0 to 100 (0 no effect, 100 complete control)
[16] = Preemergence, 31 g ai/ha, 0 to 100 scale, 0 no effect, 100 complete control
[17] = Preemergence, 62 g ai/ha, scale 0 to 100
[18] = 8 g ai/ha, postemergence, 0-100 scale
[19] = Preemergence, 8 g ai/ha, scale 0 to 100
[20] = Preemergence, 16 g ai/ha, scale 0 to 100
[21] = Preemergence, 31 g ai/ha, scale 0 to 100 (0 no effect, 100 complete control)
[22] = Preemergence, 62 g ai/ha, 0 to 100 scale, 0 no effect, 100 complete control
[23] = Flood (flooded paddy test), 62 g ai/ha, scale 0 to 100, 0 no effect, 100 complete control
[24] = Flood (flooded paddy test), 125 g ai/ha, scale 0 to 100, 0 no effect, 100 complete control
[25] = Flood (flooded paddy test), 250 g ai/ha, scale 0 to 100, 0 no effect, 100 complete control
[26] = Flood, 31 g ai/ha, scale 0 to 100

CCOC(=O)Oc1cnn(C)c(=O)c1-n1nc(-c2ccc(Cl)cc2)cc1C [Compound 53]
85: Plant response rating, Crabgrass, Large [5, 12] | Plant response rating, Wheat [7, 13] | Plant response rating, Wheat [7, 14] | Plant response rating, Oat, Wild (wild oat (Avena fatua); [17]) | Cupgrass, Woolly plant response rating [8, 18]
50: Plant response rating, Bromegrass, Downy [4, 15] | Plant response rating, Ducksalad [10, 24] | Plant response rating, Ducksalad [10, 25]
30: Plant response rating, Rice (rice (Oryza sativa); [25])
10: Bromegrass, Downy plant response rating ([4]; postemergence, 0-100 scale) | Bromegrass, Downy plant response rating ([4]; Preemergence, scale 0 to 100)
65: Crabgrass, Large plant response rating [5, 18] | Plant response rating, Soybean (soybean (Glycine max); [17]) | Oat, Wild plant response rating (wild oat (Avena fatua); [20])
90: Plant response rating, Bromegrass, Downy [4, 14] | Plant response rating, Bromegrass, Downy [4, 17] | Plant response rating, Crabgrass, Large [5, 13] | Plant response rating, Oat, Wild (wild oat (Avena fatua); [12])
100: Plant response rating, Bermudagrass [1, 12] | Plant response rating, Bermudagrass [1, 13] | Plant response rating, Bermudagrass [1, 14] | Plant response rating, Crabgrass, Large [5, 14] | Plant response rating, Cupgrass, Woolly [8, 12] | Plant response rating, Cupgrass, Woolly [8, 13] | Plant response rating, Cupgrass, Woolly [8, 14]
95: Plant response rating, Oat, Wild (wild oat (Avena fatua); [13])
70: Bermudagrass plant response rating ([1]; postemergence, 0-100 scale) | Plant response rating, Bromegrass, Downy [4, 16] | Plant response rating, Sedge, Umbrella [11, 25]
0: Bermudagrass plant response rating ([1]; Preemergence, scale 0 to 100 (0 no effect, 100 complete control)) | Plant response rating, Bermudagrass [1, 15] | Plant response rating, Bermudagrass [1, 16] | Plant response rating, Bermudagrass [1, 17] | Galium plant response rating [2] | Cocklebur plant response rating ([3]; postemergence, 0-100 scale) | Plant response rating, Cocklebur [3, 12] | Plant response rating, Cocklebur [3, 13] | Plant response rating, Cocklebur [3, 14] | Plant response rating, Cocklebur [3, 15] | Plant response rating, Cocklebur [3, 16] | Plant response rating, Cocklebur [3, 17] | Cocklebur plant response rating ([3]; Preemergence, scale 0 to 100) | Plant response rating, Crabgrass, Large [5, 16] | Plant response rating, Crabgrass, Large [5, 17] | Crabgrass, Large plant response rating [5, 19] | Crabgrass, Large plant response rating [5, 20] | Soybean plant response rating (soybean (Glycine max); [18]) | Plant response rating, Soybean (soybean (Glycine max); [12]) | Plant response rating, Soybean (soybean (Glycine max); [13]) | Plant response rating, Soybean (soybean (Glycine max); [14]) | Plant response rating, Soybean (soybean (Glycine max); [21]) | Soybean plant response rating (soybean (Glycine max); [19]) | Soybean plant response rating (soybean (Glycine max); [20]) | Velvetleaf plant response rating [6, 18] | Plant response rating, Velvetleaf [6, 12] | Plant response rating, Velvetleaf [6, 13] | Plant response rating, Velvetleaf [6, 14] | Plant response rating, Velvetleaf [6, 21] | Plant response rating, Velvetleaf [6, 22] | Velvetleaf plant response rating [6, 19] | Velvetleaf plant response rating [6, 20] | Plant response rating, Wheat [7, 21] | Wheat plant response rating [7, 20] | Plant response rating, Cupgrass, Woolly [8, 16] | Plant response rating, Cupgrass, Woolly [8, 17] | Cupgrass, Woolly plant response rating [8, 19] | Cupgrass, Woolly plant response rating [8, 20] | Plant response rating, Barnyardgrass [9, 23] | Plant response rating, Barnyardgrass [9, 24] | Plant response rating, Barnyardgrass [9, 26] | Plant response rating, Ducksalad [10, 23] | Plant response rating, Ducksalad [10, 26] | Plant response rating, Rice (rice (Oryza sativa); [23]) | Plant response rating, Rice (rice (Oryza sativa); [24]) | Plant response rating, Rice (rice (Oryza sativa); [26]) | Plant response rating, Sedge, Umbrella [11, 23] | Plant response rating, Sedge, Umbrella [11, 26]
60: Plant response rating, Bromegrass, Downy [4, 13]
45: Plant response rating, Bromegrass, Downy [4, 12]
5: Wheat plant response rating [7, 18]
55: Plant response rating, Wheat [7, 12] | Plant response rating, Wheat [7, 22]
98: Plant response rating, Oat, Wild (wild oat (Avena fatua); [14])
40: Oat, Wild plant response rating (wild oat (Avena fatua); [19]) | Plant response rating, Barnyardgrass [9, 25] | Plant response rating, Sedge, Umbrella [11, 24]
80: Oat, Wild plant response rating (wild oat (Avena fatua); [18]) | Plant response rating, Oat, Wild (wild oat (Avena fatua); [21])
